Measured values from patent US8198322B2, “Apoptotic and anti-tumor activities of metallo-salens” (Board of Regents, The University of Texas System, priority 2008, dated 2012).
“And” between values parts separate entries of the source, which are not always exact repeats. Equal entries are not always repeated. Where two headings read alike, the source gives them in different places.

Columns and labels:
MCF-7 cells [1] = assay: Cell viability assay (MTT, DIC microscopy) at 20 μM; type: cell-based, human; set-up: key to Summary of cell viability activities (active/inactive): Y and N indicates active and inactive compounds respectively; Y and N indicates active and inactive compounds respectively; conditions: for effect on cell viability (in words): up to 96 hrs; for Summary of cell viability activities (active/inactive): MCF-7 cells, 20 μM, 24-96 hrs, MTT
Method: (A-F): MCF-7 cells were treated with 20 μM metallo-salens and incubated for varying time periods (24-96 hrs). Viable cells were quantified using MTT assay. The percent viable cells (relative to control, treated with equivalent amount of DMSO) were plotted as a function of time for each compound. This experiment was repeated twice with 8 replicate treatments each time. Bars indicates standard errors of mean (SEM). Curves 1-42 in FIGS. 2A-2F, represent the viability curves for compounds 1-42 respectively. (A′-F′) DIC images of the corresponding MCF-7 cells that were treated with DMSO (control panel), or with 20 μM Mn(III)- and Fe(III)-salen complexes for 72 hrs showing the visual effects on cellular morphology and growth/death.
Cell viability assay: Approximately 10,000 MCF-7 cells were seeded into each well of a 96 well micro titer plate and incubated 24 hrs in presence of 150 μL DMEM. An additional 50 μL DMEM containing required amount of each metallo-salen to obtain 20 μM final concentrations (in 200 μL final volume) in 8 replicate wells were added. Control wells were treated with equivalent amount of dimethylsulfoxide (DMSO). The viability of the cells was assayed at 24, 48, 72 and 96 hrs post treatment by using both microscopic observation and MTT assay. For microscopic observation cells were stained with trypan blue for at least 10 minute and observed under Differential Interference Contrast (DIC) setting of a fluorescence microscope (Nikon Eclipse TE2000-U, Japan). The MTT assay was performed as described previously^42. In brief, 20 μL MTT (5 mg/ml in PBS) was added into each wells and incubated for 2 hrs under normal growth condition to allow the viable cell to convert MTT to formazan. Then the media was discarded and formazan crystals were dissolved by adding 100 μL of DMSO and incubating 2 hrs with continuous shaking. The absorbance of the lysates were directly measured at 560 nm using a micro plate reader (Fluostar-omega, BMG Labtech). The absorbance values (which are proportional to the viable cell) are plotted as a function of time. The studies were repeated twice with 8 replicates each time.
The inventors studied the effect of Mn(III)-salen and Fe(III)-salen derivatives on the cell viability of cultured breast cancer cells MCF-7 in order to investigate the biochemical effects of the derivatives. The cells were incubated alone or with 20 μM of each of the metallo-salen derivatives separately (compounds 1-45) for varying time periods (0-96 hrs). The viable cells were quantified using MTT assay and the percent of cell survived (relative to the control untreated cells) were plotted against time (FIGS. 2A-2F).

MCF-7 cells [2] = assay: Cytotoxicity assay (IC50 measurement, MTT); type: cell-based, human; conditions: MCF-7, 96 hrs
Method: Cytotoxicity assay (IC50 measurement): The cytotoxicity of Fe(III)-salen and its derivatives was determined by using MTT assay as described previously^42. In brief, approximately 10,000 MCF-7 cells were seeded into each well of a 96 well micro titer plate and incubated 24 hrs in presence of 150 μL DMEM. An additional 50 μL DMEM containing required amount of each metallo-salen to obtain 0.05 to 60 μM final concentration (in 200 μL final volume) in 8 replicate wells were added. Control wells were treated with equivalent amount of DMSO. After 96 hrs of incubation, 20 μL of MTT (5 mg/mL) was added into each well and cell viability was assayed by measuring the formazan absorption at 560 nm as described above. The absorbance (at 560 nm) values were plotted against concentration of metallo-salens to determine the IC50. The studies were repeated twice with 8 replicates each time.
The concentration of the metal-complexes at which the conversion of MTT to formazan by viable cells is reduced by 50% compared to control cells is defined as the IC50. The percent of cell survival relative to the control cells were plotted as a function of concentration of the metallo-salen derivatives.

Animal toxicity = type: in vivo; conditions: C57B mice, intraperitoneal, 5, 10 and 20 mg/kg, twice a week for 4 weeks
Method: The inventors intraperitoneally administered the Mn(III)-salen complexes (in PBS) at three different dozes (5, 10 and 20 mg/kg of mice, 6 weeks old normal C57B mice). The mice were treated twice a week for 4 weeks. After treatment, sign of toxicity were monitored (such as weight loss, mobility), animal behavior and health on a daily basis.

[3] = system: colon cancer xenograft (CCL228 cells); assay: Colon cancer xenograft experiment; type: in vivo; conditions: Athymic nude nu/nu mice, intraperitoneal, 10 mg/kg, twice a week
Method: Athymic nude nu/nu mice carrying the colon cancer xenograft were administered with 10 mg/kg of 3,3′-dimethoxy Mn(III)-salen (compound 6), 3,3′-dihydroxy Mn(III)-salphen (compound 9) and 3,3′-dihydroxy Mn(III)-salnaphen (compound 16) at 4 days interval, for over a period of 21 days. Tumor diameters were measured using a slide caliper prior to each administration and plotted (left panel). Bar indicated standard deviation (3 replicate experiments).
All the animal experiments were carried out using the IACUC approved protocol. For examining the efficacies of metallo-salen complexes, the inventors administered selected metallo-salen complexes in PBS intraperitoneally on Athymic nude nu/nu mice (Harlan) carrying the colon cancer xenografts. In brief, 2×10^6 human colon cancer cells (CCL228 cell in 100 μl of PBS) were injected subcutaneously (near the right back limb). Animals were examined daily for signs of tumor growth and behavior. Once the tumor size reached ˜25 mm^2 (2 to 3 weeks after injection of cells) the inventors administered the metallo-salen complexes intraperitoneally (in PBS solution, twice in a week, in three parallel replicates). Control mice were injected with equal volume of the diluents (PBS) alone. Prior to every new treatment with metallo-salen complexes, bi-dimensional measurements were carried out using calipers and cross-sectional area (tumor size) and data were plotted (FIG. 8A).
Xenograft experiment: To test the efficacy in controlling the tumor growth, the inventors administered compound compounds, 6, 9 and 16, intraperitoneally to six week old Athymic nude nu/nu mice carrying the colon cancer xenograft. In brief, 2×10^6 human colon cancer cells (CCL228 cell in 100 μl of PBS) were injected subcutaneously (near the right back limb). Animals were examined daily for signs of tumor growth and behavior. Once the tumor size reached ˜25 mm^2 (2 to 3 weeks after injection of cells) the inventors administered compounds 6, 9, and 16 intraperitoneally (separately in PBS solution, twice a week, 10 mg/kg dose). Every study was performed in three parallel replicates. […]

[4] = system: MCF-7 and CCL228 cancer cells over MCF-10 normal breast epithelial cells; assay: IC50 comparison of cancer versus normal cell lines (MTT, FIG. 4); type: cell-based, human; conditions: ratio of IC50 values
Method: IC50 values for each biochemically compounds were determined using MTT assay in three different cell lines that include MCF-7 (breast cancer), CCL228 (colon cancer) and MCF-10 (normal breast epithelial cells). IC50 values were for comparison for each compound (compounds 1-45) as marked.
To study the anti-tumor drug potential of Mn(III)- and Fe(III)-metallo salen derivatives, the inventors analyzed IC50 values for the each of the active compounds towards different cancer as well as normal cells. The IC50 values for different active compounds (compounds 1-42) for three different cell lines, MCF-7 (breast cancer), CCL228 (colon cancer) and MCF-10 (non malignant breast cells), are plotted in the bar graph in FIG. 4.

[5] = read-out: IC50 values for different complexes in MCF-7 cells
[6] = read-out: IC50 toward MCF-7 cells

Molecule	Summary of cell viability activities (active/inactive) (MCF-7 cells [1])	IC50 (MCF-7 cells [2]; [5])	further results
CC(=O)[O-].COc1ccc(C=NCCN=Cc2ccc(OC)cc2[O-])c([O-])c1.[Mn+3] [compound 6, 4,4′-Dimethoxysalen Mn(III) acetate]	Y (6)	12.3 µM	effect on cell viability (in words) (MCF-7 cells [1]; MCF-7, 20 μM): induced efficient cell death; animal toxicity (Animal toxicity): did not have any significant animal toxicity; survival and body weight (Animal toxicity): survived without significant loss of body weight; tumor growth in colon cancer xenograft [3]: complete arrest of tumor growth
CC(=O)[O-].COc1ccc([O-])c(C=Nc2cc3ccccc3cc2N=Cc2cc(OC)ccc2[O-])c1.[Mn+3] [compound 21, 5,5′-Dimethoxysalnaphen Mn(III) acetate]	Y (21)	19.3 µM	–
COc1cccc(C=Nc2cc3ccccc3cc2N=Cc2cccc(OC)c2[O-])c1[O-].[Cl-].[Fe+3] [compound 40, 3,3′-Dimethoxysalnaphen Fe(III) chloride]	Y (40	1.5 µM	–
5,5′-Dimethoxysalnaphen Fe(III) chloride [compound 42]	Y (42)	1.24 µM	–
[Cl-].[Fe+3].[O-]c1ccccc1C=Nc1ccccc1N=Cc1ccccc1[O-] [compound 29, Fe(III)-salphen.chloride]	Y (29)	1.25 µM	–
CC(=O)[O-].[Mn+3].[O-]c1ccc(O)cc1C=Nc1ccccc1N=Cc1cc(O)ccc1[O-] [compound 11, 5,5′-Dihydroxysalphen Mn(III) acetate]	Y (11)	45.6 µM	effect on cell viability (in words) (MCF-7 cells [1]; MCF-7, 20 μM): effective in inducing cell death
CC(=O)[O-].[Mn+3].[O-]c1c(O)cccc1C=NCCN=Cc1cccc(O)c1[O-] [compound 2, 3,3′-Dihydroxysalen Mn(III) acetate]	Y (2)	37 µM	–
CC(=O)[O-].[Mn+3].[O-]c1c(O)cccc1C=Nc1cc2ccccc2cc1N=Cc1cccc(O)c1[O-] [compound 16, 3,3′-Dihydroxysalnaphen Mn(III) acetate]	Y (16)	40.3 µM	animal toxicity (Animal toxicity): did not have any significant animal toxicity; survival and body weight (Animal toxicity): survived without significant loss of body weight; tumor growth in colon cancer xenograft [3]: tumor size were grown exponentially
[Cl-].[Fe+3].[O-]c1ccccc1C=Nc1cc2ccccc2cc1N=Cc1ccccc1[O-] [compound 36, Fe(III)-salnaphen chloride]	Y (36)	–	IC50 (MCF-7 cells [2]; [6]): 0.54 µM
CC(=O)[O-].COc1ccc([O-])c(C=NCCN=Cc2cc(OC)ccc2[O-])c1.[Mn+3] [compound 7, 5,5′-Dimethoxysalen Mn(III) acetate]	Y (7)	16.1 µM	–
[Cl-].[Fe+3].[O-]c1c(O)cccc1C=Nc1cc2ccccc2cc1N=Cc1cccc(O)c1[O-] [compound 37, 3,3′-Dihydroxysalnaphen Fe(III) chloride]	Y (37)	–	IC50 (MCF-7 cells [2]; [6]): 0.22 µM
CC(=O)[O-].[Mn+3].[O-]c1cc(O)ccc1C=Nc1cc2ccccc2cc1N=Cc1ccc(O)cc1[O-] [compound 17, 4,4′-Dihydroxysalnaphen Mn(III) acetate]	Y (17)	21.4 µM	effect on cell viability (in words) (MCF-7 cells [1]; MCF-7, 20 μM): effective in inducing cell death
CC(=O)[O-].[Mn+3].[O-]c1ccccc1C=NCCN=Cc1ccccc1[O-] [compound 1, Mn(III)-salen acetate]	Y^b (1)	20.4 µM and 20.5 µM	–
COc1ccc(C=NCCN=Cc2ccc(OC)cc2[O-])c([O-])c1.[Cl-].[Fe+3] [compound 27, 4,4′-Dimethoxysalen Fe(III) chloride]	Y (27)	12.4 µM	time to induce similar extent (more than 80%) of cell death (MCF-7 cells [1]; MCF-7, 20 μM): about 72 hrs; effect on cell viability (in words) (MCF-7 cells [1]; MCF-7, 20 μM): highly effective in killing MCF-7 cells; selectivity in killing cancer cells (MCF-7 and CCL228) over normal cells (MCF-10) [4]: about 4 fold
CC(=O)[O-].[Mn+3].[O-]c1c(O)cccc1C=Nc1ccccc1N=Cc1cccc(O)c1[O-] [compound 9, 3,3′-Dihydroxysalphen Mn(III) acetate]	Y (9)	17.3 µM	animal toxicity (Animal toxicity): did not have any significant animal toxicity; survival and body weight (Animal toxicity): survived without significant loss of body weight; tumor growth in colon cancer xenograft [3]: complete arrest of tumor growth
CC(=O)[O-].COc1cccc(C=NCCN=Cc2cccc(OC)c2[O-])c1[O-].[Mn+3] [compound 5, 3,3′-Dimethoxysalen Mn(III) acetate]	Y (5)	17.7 µM	–
COc1ccc([O-])c(C=Nc2ccccc2N=Cc2cc(OC)ccc2[O-])c1.[Cl-].[Fe+3] [compound 35, 5,5′-Dimethoxysalphen Fe(III) chloride]	Y (35)	3.11 µM	–
